Laboratory results reported in patent publication US9321756B2, “Azole compounds as PIM inhibitors” (priority 2011, dated 2016).
Where two headings read alike, the source gives them in different places.

Assays:
Format in all cases: biochemical
[1] = target: full length recombinant Pim-2 (Homo sapiens (Human), UniProt Q9P1W9); assay: Pim enzyme assay (HTRF, phosphorylation of biotinylated-BAD (S112) peptide), Pim-2; conditions: read-out: Pim2_IC50
[2] = target: full length recombinant Pim-3 (Homo sapiens (Human), UniProt Q86V86); assay: Pim enzyme assay (HTRF, phosphorylation of biotinylated-BAD (S112) peptide), Pim-3; conditions: read-out: Pim3 IC50
Description: Pim-3 was purchased from Millipore (UK).
The phosphorylation of biotinylated-BAD (S112) peptide by full length recombinant Pim-1, Pim-2, or Pim-3 protein was detected with streptavidin:Allophycocyanin (APC) conjugate and a europium (Eu) labeled antibody directed against phosphorylated-BAD (S112). […] The fluorescence is directly proportional to the amount of phosphorylated BAD peptide present in the reaction.
A reference compound was included on each assay plate in order to validate that plate; on one plate of every assay run, two additional reference compounds were included.
The final buffer conditions were as follows: 60 mM Hepes, pH 7.0, 0.05% BSA, 2 mM DTT. Incubations were carried out at RT (22° C.) for 2 h for Pim-1, 1 h and 30 min for Pim-3, and 45 min for Pim-2. The reaction was then stopped by the addition of 3 mM EDTA, and fluorescence was measured by an HTRF® Rubystar microplate reader. For each plate, percent of control (POC) values were calculated for each well. Values for the IC50 IP were estimated using a standard 4-parameter logistic model.

[3] = target: full length recombinant Pim-1 (Homo sapiens (Human), UniProt P11309); assay: Pim enzyme assay (HTRF, phosphorylation of biotinylated-BAD (S112) peptide), Pim-1; conditions: read-out: Pim_1_IC50
[4] = HTRF, 10-point curve, high dose 1 uM, 45 min at RT
[5] = HTRF, 10-point curve, high dose 1 uM, 2 h at RT

Chain of full length recombinant Pim-2 (Q9P1W9 whole entry): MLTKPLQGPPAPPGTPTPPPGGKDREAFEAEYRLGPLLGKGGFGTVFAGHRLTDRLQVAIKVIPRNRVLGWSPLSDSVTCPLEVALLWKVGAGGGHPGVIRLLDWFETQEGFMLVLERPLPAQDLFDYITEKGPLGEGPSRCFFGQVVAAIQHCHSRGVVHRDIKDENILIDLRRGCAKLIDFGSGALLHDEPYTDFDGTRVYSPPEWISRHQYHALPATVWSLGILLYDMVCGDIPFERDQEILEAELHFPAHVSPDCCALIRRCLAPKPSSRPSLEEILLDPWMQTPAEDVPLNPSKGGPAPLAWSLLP
Chain of full length recombinant Pim-1 (P11309 whole entry): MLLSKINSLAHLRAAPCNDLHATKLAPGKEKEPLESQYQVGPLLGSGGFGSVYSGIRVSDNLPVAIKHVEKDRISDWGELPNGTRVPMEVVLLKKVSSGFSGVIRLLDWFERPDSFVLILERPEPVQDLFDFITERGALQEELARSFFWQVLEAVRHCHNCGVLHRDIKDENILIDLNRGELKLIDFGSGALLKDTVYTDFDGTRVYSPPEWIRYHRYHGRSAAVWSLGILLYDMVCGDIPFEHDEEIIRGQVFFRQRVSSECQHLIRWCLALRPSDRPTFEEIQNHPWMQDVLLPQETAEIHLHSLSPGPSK

| SMILES | IC50 ([1]; Pim-2 enzyme assay) | IC50 ([2]; Pim-3 enzyme assay) | IC50 ([3]; Pim-1 enzyme assay) | IC50 [1] | IC50 [2] | IC50 [1, 4] | IC50 [3, 5] |
| --- | --- | --- | --- | --- | --- | --- | --- |
| C[C@H]1CCCCN1c1nc(-c2c[nH]c3ccc(-c4nnc(N)s4)cc23)cs1 (stereo in doubt) [Example 184, 5-(3-(2-(2-methyl-1-piperidinyl)-1,3-thiazol-4-yl)-1H-indol-5-yl)-1,3,4-thiadiazol-2-amine] | 602 nM | 94.7 nM | 161 nM | – | – | – | – |
| Nc1nnc(-c2ccc3[nH]cc(-c4cncc(-c5ccc(F)cc5)n4)c3c2)o1 [Example 7, 5-(3-(6-(4-fluorophenyl)pyrazin-2-yl)-1H-indol-5-yl)-1,3,4-oxadiazol-2-amine] | 42.5 nM | 19.7 nM | 28.8 nM | – | – | – | – |
| COc1cncc(-c2c[nH]c3ccc(-c4nnc(N)o4)nc23)c1 [Example 10, 5-(3-(5-methoxypyridin-3-yl)-1H-pyrrolo[3,2-b]pyridin-5-yl)-1,3,4-oxadiazol-2-amine] | 570 nM | 642 nM | 1130 nM | – | – | – | – |
| Nc1ncc(-c2ccc3[nH]cc(-c4cnc5ccccc5c4)c3c2)s1 [Example 20, 5-(3-(quinolin-3-yl)-1H-indol-5-yl)thiazol-2-amine] | – | 267 nM | 281 nM | 2710 nM | – | – | – |
| Nc1nnc(-c2ccc3[nH]cc(-c4cnc5ccccc5c4)c3c2)s1 [Example 21, 5-(3-(quinolin-3-yl)-1H-indol-5-yl)-1,3,4-thiadiazol-2-amine] | 1010 nM | 179 nM | 178 nM | – | – | – | – |
| CNc1nnc(-c2ccc3[nH]cc(-c4cccc(-c5ccccc5)c4)c3c2)s1 [Example 22, 5-(3-(biphenyl-3-yl)-1H-indol-5-yl)-N-methyl-1,3,4-thiadiazol-2-amine] | > 3000 nM | 1470 nM | 2800 nM | – | – | – | – |
| CNc1nnc(-c2ccc3[nH]cc(-c4ccc(F)cc4F)c3c2)s1 [Example 23, 5-(3-(2,4-difluorophenyl)-1H-indol-5-yl)-N-methyl-1,3,4-thiadiazol-2-amine] | 1550 nM | 136 nM | 423 nM | – | – | – | – |
| Cc1nnc2n1CCN(c1cccc(-c3c[nH]c4ccc(-c5nnc(N)s5)cc34)n1)C2 [Example 25, 5-(3-(6-(3-methyl-5,6-dihydro-[1,2,4]triazolo[4,3-a]pyrazin-7(8H)-yl)pyridin-2-yl)-1H-indol-5-yl)-1,3,4-thiadiazol-2-amine 2,2,2-trifluoroacetate] | 88.7 nM | 3.02 nM | 17.5 nM | – | – | – | – |
| Oc1nnc(-c2ccc3[nH]cc(-c4ccc(F)cc4F)c3c2)s1 [Example 26, 5-(3-(2,4-difluorophenyl)-1H-indol-5-yl)-1,3,4-thiadiazol-2-ol] | > 3000 nM | 795 nM | 2000 nM | – | – | – | – |
| Brc1nnc(-c2ccc3[nH]cc(-c4cccc(N5CCOCC5)n4)c3c2)s1 [Example 27, 4-(6-(5-(5-bromo-1,3,4-thiadiazol-2-yl)-1H-indol-3-yl)pyridin-2-yl)morpholine] | > 3000 nM | 399 nM | 1310 nM | – | – | – | – |
| COc1ccc(CNc2nnc(-c3ccc4[nH]cc(-c5cncc(C6CC6)n5)c4c3)o2)cc1 [Example 36, 5-(3-(6-Cyclopropylpyrazin-2-yl)-1H-indol-5-yl)-N-(4-methoxybenzyl)-1,3,4-oxadiazol-2-amine 2,2,2-trifluoroacetate] | 212 nM | 11.4 nM | 43 nM | – | – | – | – |
| O=c1[nH]nc(-c2ccc3[nH]cc(-c4cncc(C5CC5)n4)c3c2)o1 [Example 38, 5-(3-(6-Cyclopropylpyrazin-2-yl)-1H-indol-5-yl)-1,3,4-oxadiazol-2(3H)-one 2,2,2-trifluoroacetate] | – | – | 65.5 nM | 54.5 nM | 37.7 nM | – | – |
| c1cc(-c2nnc(-c3ccc4[nH]cc(-c5cncc(C6CC6)n5)c4c3)o2)[nH]n1 [Example 39, 2-(3-(6-Cyclopropylpyrazin-2-yl)-1H-indol-5-yl)-5-(1H-pyrazol-5-yl)-1,3,4-oxadiazole 2,2,2-trifluoroacetate] | – | – | 51.4 nM | 158 nM | 19.8 nM | – | – |
| CC(C)(Nc1nnc(-c2ccc3[nH]cc(-c4cncc(C5CC5)n4)c3c2)o1)c1ccccc1 [Example 50, 5-(3-(6-cyclopropylpyrazin-2-yl)-1H-indol-5-yl)-N-(2-phenylpropan-2-yl)-1,3,4-oxadiazol-2-amine] | 302 nM | – | 57.7 nM | – | 14.4 nM | – | – |
| CC(C)(Nc1nnc(-c2ccc3[nH]cc(-c4ncccn4)c3c2)o1)c1ccccc1 [Example 52, N-(2-phenylpropan-2-yl)-5-(3-(pyrimidin-2-yl)-1H-indol-5-yl)-1,3,4-oxadiazol-2-amine 2,2,2-trifluoroacetate] | 271 nM | 40.3 nM | 70.1 nM | – | – | – | – |
| CC(C)Oc1cc(F)cc(-c2c[nH]c3ccc(-c4nnc(N)o4)cc23)c1 [Example 79, 5-(3-(3-fluoro-5-(1-methylethoxy)phenyl)-1H-indol-5-yl)-1,3,4-oxadiazol-2-amine] | 185 nM | 85.8 nM | 154 nM | – | – | – | – |
| Nc1nnc(-c2ccc3[nH]cc(-c4cnn(CCN5CCOCC5)c4)c3c2)o1 [Example 81, 5-(3-(1-(2-(4-morpholinyl)ethyl)-1H-pyrazol-4-yl)-1H-indol-5-yl)-1,3,4-oxadiazol-2-amine] | 273 nM | 147 nM | 101 nM | – | – | – | – |
| Nc1nnc(-c2ccc3[nH]cc(-c4cncc(C(=O)N5CCOCC5)c4)c3c2)o1 [Example 82, 5-(3-(5-(4-morpholinylcarbonyl)-3-pyridinyl)-1H-indol-5-yl)-1,3,4-oxadiazol-2-amine] | 1780 nM | 2380 nM | 2350 nM | – | – | – | – |
| Nc1nnc(-c2ccc3[nH]cc(-c4ccccc4F)c3c2)o1 [Example 84, 5-(3-(2-fluorophenyl)-1H-indol-5-yl)-1,3,4-oxadiazol-2-amine] | 140 nM | 26 nM | 92.6 nM | – | – | – | – |
| CC(C)Oc1cccc(-c2c[nH]c3ccc(-c4nnc(N)o4)cc23)c1 [Example 85, 5-(3-(3-(1-methylethoxy)phenyl)-1H-indol-5-yl)-1,3,4-oxadiazol-2-amine] | 385 nM | 81.8 nM | 225 nM | – | – | – | – |
| CCOc1cnc(-c2c[nH]c3ccc(-c4nnc(N)o4)cc23)cn1 [Example 86, 5-(3-(5-ethoxy-2-pyrazinyl)-1H-indol-5-yl)-1,3,4-oxadiazol-2-amine] | 324 nM | 122 nM | 279 nM | – | – | – | – |
| Nc1nnc(-c2ccc3[nH]cc(-c4cncc(Oc5ccccc5)n4)c3c2)o1 [Example 92, 5-(3-(6-phenoxy-2-pyrazinyl)-1H-indol-5-yl)-1,3,4-oxadiazol-2-amine] | 46.6 nM | 12.3 nM | 25.9 nM | – | – | – | – |
| Cc1nc(-c2c[nH]c3ccc(-c4nnc(N)s4)cc23)ccc1F [Example 191, 5-(3-(5-fluoro-6-methyl-2-pyridinyl)-1H-indol-5-yl)-1,3,4-thiadiazol-2-amine] | – | 144 nM | – | – | – | – | – |
| CC(C)Nc1nnc(-c2ccc3[nH]cc(-c4cncc(C(=O)NC5CC5)c4)c3c2)o1 [Example 299, N-cyclopropyl-5-(5-(5-((1-methylethyl)amino)-1,3,4-oxadiazol-2-yl)-1H-indol-3-yl)-3-pyridinecarboxamide] | – | – | – | – | – | 299 nM | 767 nM |
| CC(C)Nc1nnc(-c2ccc3[nH]cc(NC(=O)c4ccncc4)c3c2)o1 [Example 304, N-(5-(5-((1-methylethyl)amino)-1,3,4-oxadiazol-2-yl)-1H-indol-3-yl)-4-pyridinecarboxamide] | – | – | – | – | – | 115 nM | 70 nM |
